# Data: US6083964A, “Optical resolution of racemic aminoalkylpyridine anticonvulsants and (+) aminoalkylpyridine enantiomers as highly potent orally effective anticonvulsant drugs and excitatory amino acid antagonists” (K and K Biosciences, Inc., priority 1999, dated 2000)
# Like-named read-outs stand apart in the source and are kept apart here.
# Experiments:
# [1] = system: maximal electroshock seizure (MES) in mice; test: Maximal electroshock seizure (MES) test, mice, i.p.; assay type: in vivo, mouse (male Carworth Farms #1); details: for P.I. (protective index, TD50/ED50): MES; for ED50: MES test
# Excerpt: The (+) AAP enantiomers obtained by optical resolution of racemic AAPs and the resulting highly orally effective anticonvulsant compositions of this invention are useful in the treatment of convulsive disorders. […] A series of (+) AAP enantiomers and (-) AAP enantiomers of this invention has been evaluated for anticonvulsant activity by the intraperitoneal (i.p.) and by the oral (p.o.) route using two standard seizure models in the mouse and in the rat, the maximal electroshock seizure (MES) test and the subcutaneous pentylenetetrazol (Metrazole) seizure threshold (scMet) test. […] The following Table 2 presents the results of these anticonvulsant tests with respect to several (+) and (-) AAP enantiomeric compounds derived from optical resolution of racemic AAPs of the present invention. This Table 2 identifies the specific compounds tested by their chemical name and provides the test model, the route of administration, the animal species used, and the anticonvulsant activity and toxicity in terms of ED50 and TD50 values, (the median effective and toxic dose respectively), when intraperitoneally administered to mice, and when orally administered to rats. In mice, i.p.: All compounds are emulsified in 0.5% methylcellulose. The solvent has been tested for anticonvulsant and toxic effects and found to introduce no significant bias into the testing of anticonvulsant activity. The compounds are administered intraperitoneally in a volume of 0.01 ml/gm to male Carworth Farms #1 mice weighing about 20 gm. All compounds are tested at least at three dose levels (30, 100 and 300 mg/kg) at 30 minutes and 4 hours after their administration. The Maximal Electroshock Seizure Test (MES): Maximal electroshock seizures are elicited with a 60 Hz alternating current of 50 mA intensity in mice and about 150 mA intensity in rats (5-7 times that necessary to elicit minimal electroshock seizures), delivered for 0.2 sec via corneal electrodes. A drop of 0.9% saline is instilled in the eye prior to application of the electrodes in order to […]. Abolition of the hind limb tonic extension component of the seizure is defined as protection and results are expressed as number of animals protected/number of animals tested. The Subcutaneous Pentylenetetrazol (Metrazole) Seizure Threshold Test (scMet): A 0.5% solution of 85 mg/kg of pentylenetetrazol is administered subcutaneously in the posterior midline 30 minutes or 4 hours after drug administration to the animal. […] Anticonvulsant Quantification in Mice i.p.: The ED50 values are determined in the MES, scMet and rotorod ataxia test. To determine the ED50 values, five logarithmically spaced doses of the test compound are administered to animals (male Carworth Farms #1 mice) in groups of eight, to cover 0-100% protection, and the dose required to protect 50% of the animals (ED50) together with its 95% confidence limits, is determined graphically.
# [2] = system: maximal electroshock seizure (MES) in rats; test: Maximal electroshock seizure (MES) test, rats, p.o.; assay type: in vivo, rat (Sprague-Dawley); details: rat, p.o.; for ED50: MES test; for P.I. (protective index, TD50/ED50): MES
# Excerpt: The (+) AAP enantiomers obtained by optical resolution of racemic AAPs and the resulting highly orally effective anticonvulsant compositions of this invention are useful in the treatment of convulsive disorders. […] A series of (+) AAP enantiomers and (-) AAP enantiomers of this invention has been evaluated for anticonvulsant activity by the intraperitoneal (i.p.) and by the oral (p.o.) route using two standard seizure models in the mouse and in the rat, the maximal electroshock seizure (MES) test and the subcutaneous pentylenetetrazol (Metrazole) seizure threshold (scMet) test. […] The following Table 2 presents the results of these anticonvulsant tests with respect to several (+) and (-) AAP enantiomeric compounds derived from optical resolution of racemic AAPs of the present invention. This Table 2 identifies the specific compounds tested by their chemical name and provides the test model, the route of administration, the animal species used, and the anticonvulsant activity and toxicity in terms of ED50 and TD50 values, (the median effective and toxic dose respectively), when intraperitoneally administered to mice, and when orally administered to rats. The Maximal Electroshock Seizure Test (MES): Maximal electroshock seizures are elicited with a 60 Hz alternating current of 50 mA intensity in mice and about 150 mA intensity in rats (5-7 times that necessary to elicit minimal electroshock seizures), delivered for 0.2 sec via corneal electrodes. A drop of 0.9% saline is instilled in the eye prior to application of the electrodes in order to […]. Abolition of the hind limb tonic extension component of the seizure is defined as protection and results are expressed as number of animals protected/number of animals tested. The Subcutaneous Pentylenetetrazol (Metrazole) Seizure Threshold Test (scMet): A 0.5% solution of 85 mg/kg of pentylenetetrazol is administered subcutaneously in the posterior midline 30 minutes or 4 hours after drug administration to the animal. […] This species will be the subject of the complete anticonvulsant quantification test evaluation as described above, but after oral (gavage) administration of the candidate compound.
Structure (SMILES),"P.I. (protective index, TD50/ED50) ([1]; listed as (1) (+) Enantiomer)","ED50 ([1]; Mus musculus, ip, read-out: ED50) [mg/kg]",ED50 ([2]; listed as (1) (+) Enantiomer) [mg/kg],"P.I. (protective index, TD50/ED50) ([2]; listed as (1) (+) Enantiomer)",ED50 ([1]; listed as (1) (-) Enantiomer) [mg/kg],"P.I. (protective index, TD50/ED50) ([1]; listed as (1) (-) Enantiomer)",ED50 ([2]; listed as (1) (-) Enantiomer) [mg/kg],"P.I. (protective index, TD50/ED50) ([2]; listed as (1) (-) Enantiomer)"
"CC(Nc1ccc(Cl)cc1)c1ccncc1 (single isomer, unassigned; (+)) [Compound 1, (+) N-(4-Chlorophenyl)-1-(4-pyridyl)ethylamine]",4.2,35.9,10.2,> 49.1,,,,
"CC(Nc1ccc(Cl)cc1)c1ccncc1 (single isomer, unassigned; (-)) [Compound 2, (-) N-(4-Chlorophenyl)-1-(4-pyridyl)ethylamine]",,,,,60.3,3.6,25.8,> 19.4
